In general, Ki refers to the dissociation constant of the complex between target and ligand, obtained from inhibition or displacement. Higher therefore signals lower affinity.

This note sets out measurements from BindingDB's records for doi:10.1021/jm030030n (Virginia Commonwealth University, 2003).

The nature of assay [1]: Binding affinity of compound towards rodent 5-hydroxytryptamine 7 receptor.
The nature of assay [2]: Binding affinity for rodent 5-hydroxytryptamine 5A receptor.

`CCCCC(=O)c1ccc(F)cc1` [1-(4-Fluoro-phenyl)-pentan-1-one] showed a Ki in assay [1] of 140 nM.

`Oc1ccc2cccc(N3CCNCC3)c2c1` [8-Piperazin-1-yl-naphthalen-2-ol]: in assay [2], the Ki is 3 nM. This lies in the single-digit nanomolar range.

As to `CCN(CC)C(=O)[C@@H]1C=C2c3cccc4[nH]c(Br)c(c34)C[C@H]2N(C)C1` [LSD,2-Bromo], in assay [2], the Ki is less than 10 nM.

In assay [2], `CCN(CC)C(=O)[C@@H]1C=C2c3cccc4[nH]c(I)c(c34)C[C@H]2N(C)C1` showed an inhibitory constant (Ki) of less than 10 nM.
